Results as given in paper doi:10.1101/2025.04.28.650843v1, “The structure of phycobilisome with a bicylindrical core from the cyanobacterium Synechococcus elongatus PCC 7942” (biorxiv, 2025).

Columns and labels:
Assay in all cases: cryo-EM structure of phycobilisome, […] Å
Type in all cases: binding
[1] = target: T1, ApcE (LCM), αApcE domain (Synechococcus elongatus, UniProt Q31RF9); details: covalent, terminal emitter, pH 7.0
T1 construct: gene Synpcc7942_0328; native ApcE with two REP domains in phycobilisome core (trimer 3), glutaraldehyde cross-linked; bilin in N-terminal αApcE domain
T1 sequence (Q31RF9 1-705): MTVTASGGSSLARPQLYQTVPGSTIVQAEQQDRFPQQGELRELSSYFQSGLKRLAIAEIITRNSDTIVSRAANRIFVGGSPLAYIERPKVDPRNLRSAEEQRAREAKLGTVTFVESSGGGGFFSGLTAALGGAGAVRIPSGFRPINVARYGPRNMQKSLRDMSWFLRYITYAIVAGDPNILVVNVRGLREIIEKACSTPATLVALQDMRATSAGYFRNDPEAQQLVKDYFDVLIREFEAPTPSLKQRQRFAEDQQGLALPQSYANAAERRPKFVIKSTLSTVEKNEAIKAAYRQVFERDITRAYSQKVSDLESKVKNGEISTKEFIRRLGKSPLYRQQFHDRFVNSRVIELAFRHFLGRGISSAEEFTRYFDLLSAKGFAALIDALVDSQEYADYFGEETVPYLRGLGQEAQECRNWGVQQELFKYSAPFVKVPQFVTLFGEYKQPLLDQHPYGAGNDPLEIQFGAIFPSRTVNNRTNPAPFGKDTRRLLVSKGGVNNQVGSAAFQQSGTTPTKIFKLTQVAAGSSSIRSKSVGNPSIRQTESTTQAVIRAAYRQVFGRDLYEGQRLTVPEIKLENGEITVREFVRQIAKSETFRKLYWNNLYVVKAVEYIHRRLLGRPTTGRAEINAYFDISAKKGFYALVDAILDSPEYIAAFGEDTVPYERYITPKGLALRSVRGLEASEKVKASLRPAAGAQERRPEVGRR

[2] = target: T2, ApcD (Synechococcus elongatus, UniProt Q31RP7); details: covalent; terminal emitter; pH 7.0
T2 construct: gene Synpcc7942_0240; native subunit in phycobilisome core (trimer 4), glutaraldehyde cross-linked
T2 sequence (Q31RP7 1-163): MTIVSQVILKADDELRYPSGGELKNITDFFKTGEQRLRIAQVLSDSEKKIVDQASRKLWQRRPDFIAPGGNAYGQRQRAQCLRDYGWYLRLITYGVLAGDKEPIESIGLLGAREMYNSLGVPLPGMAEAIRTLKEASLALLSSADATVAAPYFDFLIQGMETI

[3] = target: T3, ApcF (Synechococcus elongatus, UniProt O50209); details: covalent; pH 7.0
T3 construct: native subunit in phycobilisome core, glutaraldehyde cross-linked
T3 sequence (O50209 1-169): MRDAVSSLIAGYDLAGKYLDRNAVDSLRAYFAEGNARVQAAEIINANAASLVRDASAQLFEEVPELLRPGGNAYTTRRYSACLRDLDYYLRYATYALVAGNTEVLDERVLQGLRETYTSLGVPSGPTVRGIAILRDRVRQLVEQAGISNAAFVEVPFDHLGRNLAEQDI

C/C=C1/C(=C/C2=NC(=C\c3[nH]c(/C=C4\NC(=O)C(CC)=C4C)c(C)c3CCC(=O)O)/C(CCC(=O)O)=C2C)NC(=O)[C@@H]1C [phycocyanobilin]
cryo-EM structure of phycobilisome, 2.98 Å [1]: terminal emitters (ApcD and the α^ApcE domain) are deduced based on the shortest distances
cryo-EM structure of phycobilisome, 2.98 Å [2]: terminal emitters (ApcD and the α^ApcE domain) are deduced based on the shortest distances
cryo-EM structure of phycobilisome, 2.98 Å [3]: Bilins in rods and core are painted the same colors as the corresponding proteins
